In patent publication US20130029955A1, “INHIBITORS OF GALECTIN-3 AND METHODS OF USE THEREOF” (priority 2011, published 2013):

Tested on: TGR(mREN2)27 rats
Assay: Rat model of heart failure treated with a galectin-3 inhibitor
Type: in vivo
Procedure: In this study, N-acetyllactosamine (Gal3i) or an angiotensin-converting enzyme inhibitor (ACEi) was administered to TGR(mREN2)27 rats. Untreated TGR(mREN2)27 (REN2) and Sprague-Dawley (SD) rats were used as controls. TGR(mREN2)27 rats overexpress Ren-2, which leads to development of severe hypertension and ultimately heart failure. Fractional shortening, left ventricular end diastolic pressure (LVEDP), fibrosis, and survival were evaluated as a function of time.

## CC(=O)N[C@H]1C(O)O[C@H](CO)[C@@H](O[C@@H]2O[C@H](CO)[C@H](O)[C@H](O)[C@H]2O)[C@@H]1O (some centres unmarked) [Gal3i, N-acetyllactosamine]
FIG. 3A, TGR(mREN2)27 rats, relative to placebo-treated REN2 control
  fractional shortening: prevented a significant loss
FIG. 3B, SD control group did not develop heart failure
  rate of decrease in fractional shortening compared with SD control group: comparable to that of the SD control group
FIG. 3B, relative to placebo-treated REN2 control
  reduction in fractional shortening from beginning of the study to sacrifice: significantly slowed the reduction in fractional shortening
FIG. 3C, relative to placebo-treated REN2 control
  left ventricular end diastolic pressure (LVEDP): significantly improved the LVEDP
FIG. 3D
  Tau compared with SD control group: comparable to that of the SD control group
FIG. 3D, relative to placebo-treated REN2 control
  left ventricle pressure decay (Tau): significantly improved the Tau
FIG. 4A/4B, cardiac tissue sections, compared to placebo-treated REN2 control group
  cardiac fibrosis: significantly inhibited fibrosis
FIG. 5, after 40 days, placebo-treated REN2 rats about 65%
  survival (rats remaining, Kaplan-Meier): approximately 80%
